According to US20260109684A1, “QUINOLINE COMPOUNDS AS MODULATORS OF RAGE ACTIVITY AND USES THEREOF” (NEW YORK UNIVERSITY, priority 2022, published 2026):

Columns and labels:
[1] = system: Murine primary aortic smooth muscle cells (SMC); assay: Murine primary aortic smooth muscle cell (SMC) migration, wounding assay; assay type: cell-based, mice; conditions: Mus musculus; inhibition of migration; compounds incubated 1.5 h, then CML-AGE (10 μg/ml) or PDGF-BB (10 ng/ml) for 4 h
Method: Murine SMCs were cultured from the aortas of 10-week old male mice as described in M. B. Manigrasso, J. Pan, V. Rai, J. Zhang, S. Reverdatto, N. Quadri, R. J. DeVita, R. Ramasamy, A. Shekhtman, A. M. Schmidt, Small Molecule Inhibition of Ligand-Stimulated RAGE-DIAPH1 Signal Transduction. Scientific reports 6, 22450 (2016). Wild-type murine aortic SMCs were isolated and used between passages 8 to 12. Migration in response to the RAGE ligand CML-AGE (CML, 10 μg/ml) or a general effector, not a RAGE ligand, PDGF-BB, 10 ng/ml (R&D systems) was assessed with a wounding assay as also described in M. B. Manigrasso, J. Pan, V. Rai, J. Zhang, S. Reverdatto, N. Quadri, R. J. DeVita, R. Ramasamy, A. Shekhtman, A. M. Schmidt, Small Molecule Inhibition of Ligand-Stimulated RAGE-DIAPH1 Signal Transduction. Scientific reports 6, 22450 (2016). Briefly, cells were grown to confluence in 24-well plates and starved overnight. The following morning, serum free media (SFM) was removed and compounds were added per dose response. Immediately following the addition of compounds, the monolayer was wounded using a p10 pipette tip. The compounds were allowed to incubate for 1.5 h. Following this incubation, all compounds were removed and fresh media containing RAGE ligand, CML-AGE (10 μg/ml), or general effector, PDGF-BB (10 ng/ml), was added for 4 h. Cells were maintained at 37° C. and 5% CO2. Images were taken at 4 h. Each image was measured, and an area ingrowth of effective migrating cells was calculated. Results are shown in FIGS. 12-20 and Table 2 below.

ctRAGE = target: T1, ctRAGE (Homo sapiens, UniProt Q15109); assay: Fluorescence binding titration assay (native tryptophan fluorescence); conditions: 20 nM ctRAGE, 10 mM phosphate buffer pH 7.0, 5% DMSO
T1 construct: The cytoplasmic domain of RAGE, C terminal RAGE or ctRAGE (RAGE tail)
T1 sequence (Q15109 364-404 limits assumed): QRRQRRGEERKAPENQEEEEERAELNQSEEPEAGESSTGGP
Method: Native tryptophan fluorescence experiments were conducted using a Horiba Jobin Yvon Fluorolog spectrofluorometer. 1 mM of a compound was dissolved in 10 mM phosphate buffer [pH 7.0] and 50% DMSO. 20 nM ctRAGE solution was individually titrated from 0.1 nM-100 μM with the compounds in 100 μL of 10 mM phosphate buffer [pH 7.0] and 5% DMSO. The excitation and emission wavelengths were 280 nm and 352 nm, respectively. Dissociation constants, Kd, were estimated from the changes in peak fluorescence intensities as a function of the free compound concentration by using Prism 6 software (GraphPad). Data were fit to the equation, (F−F0)/Fmax=[compound]/(Kd+[compound]) where F is the fluorescence intensity at a given compound concentration, F0 is the fluorescence intensity of the blank, and Fmax is the maximum fluorescence intensity.

ob ob mice = assay: Wound healing of full thickness excisional wounds in ob ob mice; assay type: in vivo; conditions: male and female ob ob mice; 5 mg/kg twice daily topical, day 3 through day 10; days 14 and 21 post-surgery
Method: RAGE 406R was tested in male and female ob ob mice (model of obesity and type 2 diabetes) for potential benefits in wound healing. Full thickness excisional wounds were created on the backs of 8 week old ob ob mice, as described in Manigrasso et al., “Small-molecule antagonism of the interaction of the RAGE cytoplasmic domain with DIAPH1 reduces diabetic complications in mice,” Sci Transl Med. 13 (621):eabf7084 (2021). Beginning on day 3 after the surgery, mice received RAGE 406R (5 mg/kg) twice daily by topical administration under the Tegaderm through day 10 post-operatively. The wounds were photographed on days 0, 7, 14, and 21 and the % wound closure (compared to baseline) was calculated for each mouse. The Mean+/−Standard Error of the Mean is shown in FIGS. 23A-B along with representative images (FIGS. 23C-D).

Row | Structure (SMILES) | IC50 [1] [nM] | Kd (ctRAGE) [nM] | % wound closure compared to vehicle-treated animals (ob ob mice)
1 | N#Cc1ccc2c(CN3CCOCC3)cc(-c3ccc(C4CCC(=O)N4)cc3)nc2c1 (racemic) [RAGE 406] | 28 | 3 | 
2 | N#Cc1ccc2c(CN3CCOCC3)cc(-c3ccc(C(N)=O)cc3)nc2c1 [RAGE 283] | 2.6 | 1 | 
3 | N#Cc1ccc2c(CN3CCOCC3)cc(-c3ccc(CN)cc3)nc2c1 [RAGE 286, 2-(4-(aminomethyl)phenyl)-4-(morpholinomethyl)quinoline-7-carbonitrile] | 270 | 20 | 
4 | CC(=O)NCc1ccc(-c2cc(C(=O)N3CCOCC3)c3ccc(C#N)cc3n2)cc1 [RAGE 289, N-(4-(7-cyano-4-(morpholine-4-carbonyl)quinolin-2-yl)benzyl) acetamide] | 18 | 3 | 
5 | N#Cc1ccc2c(CN3CCOCC3)cc(-c3ccc(C(=N)N)cc3)nc2c1 [RAGE 290] | 6 | 1 | 
6 | N#Cc1ccc2c(CN3CCOCC3)cc(-c3ccc(CC(N)=O)cc3)nc2c1 [RAGE 291] |  | 12 | 
7 | CN(C)Cc1ccc(-c2cc(CN3CCOCC3)c3ccc(C#N)cc3n2)cc1 [RAGE 299] | 93 | 8 | 
8 | N#Cc1ccc2c(CN3CCOCC3)cc(-c3ccc(CN4CCCC4)cc3)nc2c1 [RAGE 401] | 905 |  | 
9 | N#Cc1ccc2c(CN3CCOCC3)cc(-c3ccc(CCN)cc3)nc2c1 [RAGE 402, 2-(4-(2-aminoethyl)phenyl)-4-(morpholinomethyl)quinoline-7-carbonitrile] | 136 | 3 | 
10 | N#Cc1ccc2c(CN3CCOCC3)cc(-c3ccc([C@H]4CCC(=O)N4)cc3)nc2c1 [RAGE 406R] | 1 | 0.6 | significantly higher wound closure
11 | N#Cc1ccc2c(CN3CCOCC3)cc(-c3ccc([C@@H]4CCC(=O)N4)cc3)nc2c1 [RAGE 406S] | 1160 | 2 | 
12 | N#Cc1ccc2c(C(=O)N3CCOCC3)cc(-c3ccc(C4CCCN4)cc3)nc2c1 (centres unmarked) [RAGE 407] | 153 | 2 | 
